Data reported in patent US20210401821A1, “PROPHYLACTIC OR THERAPEUTIC AGENT AND MEDICINAL COMPOSITION FOR IL-31-MEDIATED DISEASE” (Kyushu University, National University Corporation, priority 2018, published 2021).

Legend:
[1] = test system: wild-type C57BL/6 mice; assay: Scratching behavior induced by IL-31 after NK3R antagonist administration; type: in vivo, mouse; details: 45 minutes before intradermal IL-31 (1 μg/50 μl)
Method: (§1) Prior to the experiments, mice were placed in an acrylic cage (11 cm×14 cm×20 cm) for at least 1 hour to acclimatize to the environment. Subsequently, 50 μL of a pruritus-inducing substance dissolved in sterilized physiological saline was injected intradermally into shoulders of the mice, and the behavior of these mice was videotaped. The total number of scratching behavior within a specified time was determined by playing the video. During the scratching behavior of a mouse, the mouse extends its hind leg to the itchy area, tilts its head toward the hind leg, quickly turns the hind leg several times, and returns the hind leg to the ground. These series of actions were counted as one scratching behavior. As pruritus-inducing substances. IL-31 (1 μg/50 μl; PeproTech Inc.). SLIGRL-NH2 (100 μg/50 μl; Bachem Holding AG), chloroquine (100 μg/50 μl; Wako Pure Chemical Industries.), and histamine (100 μg/50 μl; Wako Pure Chemical Industries.) were used.
(§2) In some experiments, the actions of NK3R antagonists on the scratching behavior of the mice were investigated. As compounds having activity as an NK3R antagonist or an NK3R antagonist, osanetant (Axon Medchem.), talnetant (NAMIKI SHOJI Co., Ltd.), pavinetant (NAMIKI SHOJI Co., Ltd.), fezolinetant (Haoyuan Chemexpress Co., Ltd.). SSR-146977 (Tocris Bioscience.), SSR-241586 (WuXi AppTec New Drug Development Co. Ltd.), SB-235375 (WuXi AppTec New Drug Development Co. Ltd.), and CS-003 (WuXi AppTec New Drug Development Co. Ltd.) were used. These compounds were administered to the mice in a predetermined amount per weight of each mouse 45 minutes before the intradermal injection of the pruritus-inducing substance. Osanetant was dissolved in phosphate buffered saline (PBS) containing 0.1% Tween-20 and intraperitoneally injected at 5 mg/kg. Talnetant and pavinetant were dissolved in a mixture of 10% dimethyl sulfoxide (DMSO), 40% polyethylene glycol 300, 5% Tween-80, and 45% saline and were intraperitoneally injected at 30 mg/kg. Fezolinetant was dissolved in PBS containing 10% DMSO and orally administered at 10 mg/kg. SSR-146977 was dissolved in PBS containing 0.1% ethanol and intraperitoneally injected at 0.3 mg/kg. SSR-241586 was dissolved in a 0.01% Tween-80 aqueous solution and intraperitoneally injected at 3 mg/kg. SB-235375 was dissolved in PBS and orally administered at 3 mg/kg. CS-003 was dissolved in PBS containing 5% glucose and intravenously injected at 3 mg/kg.
(§3) Similar to osanetant, fezolinetant that is a selective antagonist of NK3R was orally administered to wild-type C57BL/6 mice, and the effect on the scratching behavior induced by IL-31, histamine, or chloroquine was analyzed.
(§4) Furthermore, CS-003 that is an antagonist to neurokinin 3 receptor (NK3R) and also an antagonist to neurokinin 1 receptor (NK1R) and neurokinin 2 receptor (NK2R), and SSR-241586 that is an antagonist to NK3R and NK2R were administered to wild-type C57BL/6 mice, and then the effects of the compounds on the scratching behavior induced by IL-31 or chloroquine were analyzed.

[2] = test system: wild-type C57BL/6 mice; assay: Scratching behavior induced by chloroquine after NK3R antagonist administration; type: in vivo, mouse; details: 45 minutes before intradermal chloroquine (100 μg/50 μl)
Method: as §1, §2, §3, §4

[3] = test system: Nppb mRNA; assay: Nppb mRNA expression in stimulated DRG neurons in vitro; type: cell-based, mouse; details: DRG neurons from wild-type C57BL/6 mice stimulated with NKB in vitro; FIG. 4(b)
Method: (§5) Total RNAs were extracted from each tissue using ISOGEN (NIPPON GENE CO., LTD.). Total RNAs were treated with RNase-free DNase I (Thermo Fisher Scientific K.K.). This RNA sample was reverse transcribed using an oligo (dT) primer (v) and SuperScript III reverse transcriptase (Thermo Fisher Scientific K.K.), and amplified by PCR. Real-time PCR was performed by Cfx Connect™ Thermal Cycler (Bio-Rad Laboratories, Inc.) using SYBR Green PCR Master Mix (Applied Biosystems). The expression level of the target gene was normalized by an expression level of Hprt gene. For the analysis, CFX Manager (ver3.1) attached to a device was used.
(§6) Changes in the expression levels of Tac2, Grp. and Nppb through administration of IL-31 or NKB were analyzed. First. DRG neurons isolated from the wild-type C57BL/6 mice were stimulated by the addition of the IL-31 protein in vitro, and the expression levels of Tac2 mRNA, Grp mRNA, and Nppb mRNA were analyzed.
(§7) Next, DRG neurons isolated from the wild-type C57BL/6 mice were stimulated by neurokinin B (NKB) in vitro, and the expression levels of Grp mRNA and Nppb mRNA were analyzed.

[4] = test system: Tac2−/− (Δ4) mice; assay: Scratching behavior after injecting NKB into medullary cavities; type: in vivo, mouse; details: FIG. 10(a)
Method: Next, in order to identify the site where NKB was functioning. NKB was injected into medullary cavities of Tac2^−/− (Δ4) mice, and scratching behavior was analyzed.

[5] = test system: Grp mRNA; assay: Grp mRNA expression in stimulated DRG neurons in vitro; type: cell-based, mouse; details: DRG neurons from wild-type C57BL/6 mice stimulated with NKB in vitro; FIG. 4(b)
Method: as §5, §6, §7

[6] = test system: wild-type C57BL/6 mice; assay: Scratching behavior induced by histamine after NK3R antagonist administration; type: in vivo, mouse; details: 45 minutes before intradermal histamine (100 μg/50 μl)
Method: as §1
In some experiments, the actions of NK3R antagonists on the scratching behavior of the mice were investigated. […]
as §3

[7] = 30 mg/kg intraperitoneal, FIGS. 13(a), 14(a)
[8] = 30 mg/kg intraperitoneal, FIGS. 13(b), 14(b)
[9] = SSR-241586 3 mg/kg intraperitoneal, CS-003 3 mg/kg intravenous, FIGS. 16(a), 17(a)

## CC[C@H](NC(=O)c1c(OCC(=O)O)c(-c2ccccc2)nc2ccccc12)c1ccccc1 [SB-235375, 2-[2-phenyl-4-[N-[1 (S)-phenylpropyl]carbamoyl]quinoline-3-yloxy]acetic acid]
[1]; 3 mg/kg oral, FIG. 18(a)
  frequency of scratching behavior induced by IL-31: did decrease
[2]; 3 mg/kg oral, FIG. 18(b)
  frequency of scratching behavior by chloroquine: did not decrease

## CC[C@H](NC(=O)c1c(O)c(-c2ccccc2)nc2ccccc12)c1ccccc1 [talnetant, N-(α-ethylbenzyl)-3-hydroxy-2-phenylquinoline-4-carboxamide]
[1]; [7]
  frequency of scratching behavior induced by IL-31: did decrease
[2]; [8]
  frequency of scratching behavior by chloroquine: did not decrease

## CC[C@H](NC(=O)c1c(NS(C)(=O)=O)c(-c2ccccc2)nc2ccccc12)c1ccccc1 [pavinetant]
[1]; [7]
  frequency of scratching behavior induced by IL-31: did decrease
[2]; [8]
  frequency of scratching behavior by chloroquine: did not decrease

## NKB: mature neurokinin B, neuropeptide from PPT-3 (Tac2 gene), SEQ ID NO: 2; binds neurokinin receptor 3 (DMHDFFVGLM; listed as Homo sapiens)
[3]
  expression level of Nppb mRNA: increased
[4]
  scratching behavior after intramedullary injection of NKB: induced the scratching behavior
[5]
  expression level of Grp mRNA: increased

## COc1cc(C(=O)N2CCO[C@](CCN3CCC4(CC3)c3ccccc3C[S@+]4[O-])(c3ccc(Cl)c(Cl)c3)C2)cc(OC)c1OC [CS-003]
[1]; [9]
  frequency of scratching behavior induced by IL-31: suppressed

## Cc1nsc(-c2nnc3n2CCN(C(=O)c2ccc(F)cc2)[C@@H]3C)n1 [fezolinetant, (4-fluorophenyl)-[(8R)-8-methyl-3-(3-methyl-1,2,4-thiadiazole-5-yl)-6,8-dihydro-5H-[1,2,4]triazolo[4,3-a]pyrazine-7-yl]-methanone]
[1]; fezolinetant 10 mg/kg oral, FIG. 12(a)
  frequency of scratching behavior by IL-31: decreased
[2]; fezolinetant 10 mg/kg oral, FIG. 12(c)
  frequency of scratching behavior by chloroquine: did not decrease
[6]; fezolinetant 10 mg/kg oral, FIG. 12(b)
  frequency of scratching behavior by histamine: did not decrease

## CC(=O)N(C)C1(c2ccccc2)CCN(CCC[C@]2(c3ccc(Cl)c(Cl)c3)CCCN(C(=O)c3ccccc3)C2)CC1 [osanetant, N-[1-[3-[(3R)-1-benzoyl-3-(3,4-dichlorophenyl)piperidine-3-yl)propyl)-4-phenylpiperidine-4-yl]-N-methyl acetamide]
[1]; osanetant 5 mg/kg intraperitoneal, FIG. 11(c)
  frequency of scratching behavior by IL-31: decreased
[2]; osanetant 5 mg/kg intraperitoneal, FIG. 11(e)
  frequency of scratching behavior by chloroquine: did not decrease
[6]; osanetant 5 mg/kg intraperitoneal, FIG. 11(d)
  frequency of scratching behavior by histamine: did not decrease

## CN(C)C(=O)C1(N2CCCCC2)CCN(CC[C@@]2(c3ccc(Cl)c(Cl)c3)CN(C(=O)c3ccccc3)CCO2)CC1 [SSR-241586, (+)-1′-[2-[4-benzoyl-2(R)-(3,4-dichlorophenyl)morpholine-2-yl]ethyl]-N,N-dimethyl-1,4′-bipiperidin-4′-carboxamide]
[1]; [9]
  frequency of scratching behavior induced by IL-31: suppressed
